Results published in patent US9586962B2, “Disubstituted octahydropyrrolo [3,4-C] pyrroles as orexin receptor modulators” (Janssen Pharmaceutica NV, priority 2011, dated 2017).

Target: human orexin 2 receptor (Homo sapiens (Human), UniProt O43614)
Test: Human orexin 2 receptor Ca2+ mobilization assay (FLIPR, PFSK cells, orexin B 100 nM)
Assay type: cell-based
Conditions: modified Cheng-Prusoff correction, read-out: OR 2 Kb
Experimental: Human Orexin 2 Receptor Ca^2+ Mobilization Assay
Cells were seeded on to 96-well Packard viewplates at a density of 50,000 cells/well and incubated overnight at 37° C., 5% CO2. The cells were dye-loaded with 4 μM Ca^2+ dye Fluo-3AM in serum-free DMEM/F-12 with 2.5 mM probenecid and incubated at 37° C., 5% CO2 for one hour. Cells were pre-incubated with compounds (diluted in DMEM/F-12) for 30 minutes before agonist (orexin B, 100 nM) stimulation. Ligand-induced Ca^2+ release was measured using a Fluorometric Imaging Plate Reader (FLIPR, Molecular Devices, Sunnyvale, Calif.). Functional responses were measured as peak fluorescence intensity minus basal. The concentration of agonist that produced a half-maximal response is represented by the EC50 value. Antagonistic potency values were converted to apparent pKB values using a modified Cheng-Prusoff correction. Apparent pKB=−log IC50/1+[conc agonist/EC50]. Data are expressed as mean±S.E.M, the designation of NT means not tested.

Sequence of human orexin 2 receptor (O43614 whole entry): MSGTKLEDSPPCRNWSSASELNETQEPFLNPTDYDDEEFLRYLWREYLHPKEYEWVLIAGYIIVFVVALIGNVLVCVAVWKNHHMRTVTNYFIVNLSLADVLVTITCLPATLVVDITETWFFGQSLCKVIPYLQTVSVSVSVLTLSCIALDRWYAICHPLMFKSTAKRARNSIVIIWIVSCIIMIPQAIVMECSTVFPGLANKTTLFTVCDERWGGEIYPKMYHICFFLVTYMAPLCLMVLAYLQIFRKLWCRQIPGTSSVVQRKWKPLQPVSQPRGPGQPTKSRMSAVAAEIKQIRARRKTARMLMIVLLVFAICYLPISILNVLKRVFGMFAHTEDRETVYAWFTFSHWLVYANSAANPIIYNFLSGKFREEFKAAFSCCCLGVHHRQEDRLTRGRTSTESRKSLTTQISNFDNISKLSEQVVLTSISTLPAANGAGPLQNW

Kb | SMILES
79 nM | Cc1ccc(-n2nccn2)c(C(=O)N2CC3CN(c4nc(C)cnc4C)CC3C2)c1 (stereo not shown) [Example 123, [5-(3,6-Dimethyl-pyrazin-2-yl)-hexahydro-pyrrolo[3,4-c]pyrrol-2-yl]-(5-methyl-2-[1,2,3]triazol-2-yl-phenyl)-methanone]
100 nM | CCOc1ccc2ccccc2c1C(=O)N1CC2CN(c3nccc(-c4ccccc4)n3)CC2C1 (stereo not shown) [Example 126, 2-[(2-Ethoxynaphthalen-1-yl)carbonyl]-5-(4-phenylpyrimidin-2-yl)octahydro pyrrolo[3,4-c]pyrrole]
20 nM | Cc1ccc(-n2nccn2)c(C(=O)N2CC3CN(c4nccc(-c5ccccc5)n4)CC3C2)c1 (stereo not shown) [Example 127, 2-{[5-Methyl-2-(2H-1,2,3-triazol-2-yl)phenyl]carbonyl}-5-(4-phenylpyrimidin-2-yl)octahydropyrrolo[3,4-c]pyrrole]
100 nM | COc1cc(OC)nc(N2CC3CN(C(=O)c4cc(C)ccc4-n4nccn4)CC3C2)n1 (stereo not shown) [Example 129, 2-(4,6-Dimethoxypyrimidin-2-yl)-5-{[5-methyl-2-(2H-1,2,3-triazol-2-yl)phenyl]carbonyl}octahydropyrrolo[3,4-c]pyrrole]
79 nM | O=C(c1ccccc1-n1nccn1)N1CC2CN(c3nccc(-c4ccccc4)n3)CC2C1 (stereo not shown) [Example 131, 2-(4-Phenylpyrimidin-2-yl)-5-{[2-(2H-1,2,3-triazol-2-yl)phenyl]carbonyl}octahydro pyrrolo[3,4-c]pyrrole]
79 nM | Cc1cc(C)nc(N2CC3CN(C(=O)c4nc(C)sc4-c4ccccc4F)CC3C2)n1 (stereo not shown) [Example 132, 2-(4,6-Dimethylpyrimidin-2-yl)-5-{[5-(2-fluorophenyl)-2-methyl-1,3-thiazol-4-yl]carbonyl}octahydropyrrolo[3,4-c]pyrrole]
12 nM | Cc1cccc(N2CC3CN(C(=O)c4ccccc4-c4cccs4)CC3C2)n1 (stereo not shown) [Example 134, 2-(6-Methylpyridin-2-yl)-5-[(2-thiophen-2-ylphenyl)carbonyl]octahydropyrrolo[3,4-c]pyrrole]
40 nM | Cc1ccnc(N2CC3CN(C(=O)c4ccccc4-n4nccn4)CC3C2)n1 (stereo not shown) [Example 135, 2-(4-Methylpyrimidin-2-yl)-5-{[2-(2H-1,2,3-triazol-2-yl)phenyl]carbonyl}octahydro pyrrolo[3,4-c]pyrrole]
50 nM | Cc1ccnc(N2CC3CN(C(=O)c4ccccc4-c4cccs4)CC3C2)c1 (stereo not shown) [Example 136, 2-(4-Methylpyridin-2-yl)-5-[(2-thiophen-2-ylphenyl)carbonyl]octahydropyrrolo[3,4-c]pyrrole]
25 nM | COc1cccc(N2CC3CN(C(=O)c4ccccc4-c4cccs4)CC3C2)n1 (stereo not shown) [Example 137, 2-(6-Methoxypyridin-2-yl)-5-[(2-thiophen-2-ylphenyl)carbonyl]octahydro pyrrolo[3,4-c]pyrrole]
40 nM | COc1cc(OC)nc(N2CC3CN(C(=O)c4ccccc4-c4cccs4)CC3C2)n1 (stereo not shown) [Example 138, 2-(4,6-Dimethoxypyrimidin-2-yl)-5-[(2-thiophen-2-ylphenyl)carbonyl]octahydro pyrrolo[3,4-c]pyrrole]
63 nM | O=C(c1ccccc1-c1cccs1)N1CC2CN(c3nc4ccccc4o3)CC2C1 (stereo not shown) [Example 139, 2-{5-[(2-Thiophen-2-ylphenyl)carbonyl]hexahydropyrrolo[3,4-c]pyrrol-2(1H)-yl}-1,3-benzoxazole]
79 nM | O=C(c1ccccc1-n1nccn1)N1CC2CN(c3nccc(-c4cccs4)n3)CC2C1 (stereo not shown) [Example 143, 2-(4-Thiophen-2-ylpyrimidin-2-yl)-5-{[2-(2H-1,2,3-triazol-2-yl)phenyl]carbonyl}octahydropyrrolo[3,4-c]pyrrole]
63 nM | O=C(c1ccccc1-n1nccn1)N1CC2CN(c3nc4ccccc4o3)CC2C1 (stereo not shown) [Example 144, 2-[5-{[2-(2H-1,2,3-Triazol-2-yl)phenyl]carbonyl}hexahydropyrrolo[3,4-c]pyrrol-2(1H)-yl]-1,3-benzoxazole]
32 nM | CCOc1ccc2ccccc2c1C(=O)N1CC2CN(c3cnc4ccccc4n3)CC2C1 (stereo not shown) [Example 145, 2-{5-[(2-Ethoxynaphthalen-1-yl)carbonyl]hexahydropyrrolo[3,4-c]pyrrol-2(1H)-yl}quinoxaline]
16 nM | O=C(c1cc(F)ccc1-c1ncccn1)N1CC2CN(c3cnc4ccccc4n3)CC2C1 (stereo not shown) [Example 146, 2-{5-[(5-Fluoro-2-pyrimidin-2-ylphenyl)carbonyl]hexahydropyrrolo[3,4-c]pyrrol-2(1H)-yl}quinoxaline]
63 nM | CCOc1cccc(N2CC3CN(C(=O)c4ccccc4-n4nccn4)CC3C2)n1 (stereo not shown) [Example 147, 2-(6-Ethoxypyridin-2-yl)-5-{[2-(2H-1,2,3-triazol-2-yl)phenyl]carbonyl}octahydro pyrrolo[3,4-c]pyrrole]

Kb | SMILES
40 nM | COc1ccnc(N2CC3CN(C(=O)c4cc(F)ccc4-c4ncccn4)CC3C2)n1 (stereo not shown) [Example 150, 2-[(5-Fluoro-2-pyrimidin-2-ylphenyl)carbonyl]-5-(4-methoxypyrimidin-2-yl)octahydropyrrolo[3,4-c]pyrrole]
40 nM | O=C(c1ccccc1-n1nccn1)N1CC2CN(c3nccc(C(F)(F)F)n3)CC2C1 (stereo not shown) [Example 153, 2-{[2-(2H-1,2,3-Triazol-2-yl)phenyl]carbonyl}-5-[4-(trifluoromethyl)pyrimidin-2-yl]octahydropyrrolo[3,4-c]pyrrole]
16 nM | Cc1cnc(C)c(N2CC3CN(C(=O)c4ccccc4-n4nccn4)CC3C2)n1 (stereo not shown) [Example 155, 2-(3,6-Dimethylpyrazin-2-yl)-5-{[2-(2H-1,2,3-triazol-2-yl)phenyl]carbonyl}octa hydropyrrolo[3,4-c]pyrrole]
16 nM | COc1ccnc(N2CC3CN(C(=O)c4ccccc4-n4nccn4)CC3C2)n1 (stereo not shown) [Example 156, 2-(4-Methoxypyrimidin-2-yl)-5-{[2-(2H-1,2,3-triazol-2-yl)phenyl]carbonyl}octa hydropyrrolo[3,4-c]pyrrole]
8 nM | Cc1cncc(N2CC3CN(C(=O)c4ccc(F)cc4-n4nccn4)CC3C2)n1 (stereo not shown) [Example 158, 2-{[4-Fluoro-2-(2H-1,2,3-triazol-2-yl)phenyl]carbonyl}-5-(6-methylpyrazin-2-yl)octahydropyrrolo[3,4-c]pyrrole]
8 nM | COc1ccnc(N2CC3CN(C(=O)c4ccc(F)cc4-n4nccn4)CC3C2)n1 (stereo not shown) [Example 159, 2-{[4-Fluoro-2-(2H-1,2,3-triazol-2-yl)phenyl]carbonyl}-5-(4-methoxypyrimidin-2-yl)octahydropyrrolo[3,4-c]pyrrole]
20 nM | COc1cc(OC)nc(N2CC3CN(C(=O)c4ccc(F)cc4-n4nccn4)CC3C2)n1 (stereo not shown) [Example 160, 2-(4,6-Dimethoxypyrimidin-2-yl)-5-{[4-fluoro-2-(2H-1,2,3-triazol-2-yl)phenyl]carbonyl}octahydropyrrolo[3,4-c]pyrrole]
501 nM | COc1ccc(C(=O)N2CC3CN(c4nc5ccc(Cl)cc5s4)CC3C2)c(OC)c1 (stereo not shown) [Example 163, 6-Chloro-2-{5-[(2,4-dimethoxyphenyl)carbonyl]hexahydropyrrolo[3,4-c]pyrrol-2(1H)-yl}-1,3-benzothiazole]
200 nM | O=C(c1ccccc1-c1ccccc1)N1CC2CN(c3nccc(-c4ccccc4)n3)CC2C1 (stereo not shown) [Example 164, 2-(Biphenyl-2-ylcarbonyl)-5-(4-phenylpyrimidin-2-yl)octahydropyrrolo[3,4-c]pyrrole]
631 nM | COc1ccc(C(=O)N2CC3CN(c4nccc(-c5ccccc5)n4)CC3C2)c(OC)c1 (stereo not shown) [Example 167, 2-[(2,4-Dimethoxyphenyl)carbonyl]-5-(4-phenylpyrimidin-2-yl)octahydropyrrolo[3,4-c]pyrrole]
126 nM | O=C(c1ccccc1-c1ccccc1)N1CC2CN(c3cnc4ccccc4n3)CC2C1 (stereo not shown) [Example 168, 2-[5-(Biphenyl-2-ylcarbonyl)hexahydropyrrolo[3,4-c]pyrrol-2(1H)-yl]quinoxaline]
158 nM | O=C(c1ccccc1-c1ccccc1)N1CC2CN(c3nc4ccc(F)cc4s3)CC2C1 (stereo not shown) [Example 176, 2-[5-(Biphenyl-2-ylcarbonyl)hexahydropyrrolo[3,4-c]pyrrol-2(1H)-yl]-6-fluoro-1,3-benzothiazole]
126 nM | Cc1cc(N2CC3CN(C(=O)c4ccccc4-c4ccccc4)CC3C2)nc2ccccc12 (stereo not shown) [Example 178, 2-[5-(Biphenyl-2-ylcarbonyl)hexahydropyrrolo[3,4-c]pyrrol-2(1H)-yl]-4-methylquinoline]
20 nM | Cc1cc(N2CC3CN(C(=O)c4cc(F)ccc4-c4ncccn4)CC3C2)nc(C(F)(F)F)n1 (stereo not shown) [Example 204, (5-Fluoro-2-pyrimidin-2-yl-phenyl)-[5-(6-methyl-2-trifluoromethyl-pyrimidin-4-yl)-hexahydro-pyrrolo[3,4-c]pyrrol-2-yl]-methanone]
25 nM | Cc1cncc(N2CC3CN(C(=O)c4ccccc4-n4nccn4)CC3C2)n1 (stereo not shown) [Example 211, [5-(6-Methyl-pyrazin-2-yl)-hexahydro-pyrrolo[3,4-c]pyrrol-2-yl]-(2-[1,2,3]triazol-2-yl-phenyl)-methanone]
32 nM | Cc1cnc(C)c(N2CC3CN(C(=O)c4cc(F)ccc4-c4ncccn4)CC3C2)n1 (stereo not shown) [Example 212, [5-(3,6-Dimethyl-pyrazin-2-yl)-hexahydro-pyrrolo[3,4-c]pyrrol-2-yl]-(5-fluoro-2-pyrimidin-2-yl-phenyl)-methanone]
50 nM | Cc1cnc(C)c(N2CC3CN(C(=O)c4ccccc4-c4ncn[nH]4)CC3C2)n1 (stereo not shown) [Example 213, [5-(3,6-Dimethyl-pyrazin-2-yl)-hexahydro-pyrrolo[3,4-c]pyrrol-2-yl]-[2-(2H-[1,2,4]triazol-3-yl)-phenyl]-methanone]
